Test results reported in the supplement of paper PMC10307832.

Assays:
Assay in all cases: relative viability (nuclei count vs DMSO), 5 days (fraction); higher = more cells survive
A-427 = system: A-427
How it was run: (§1)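 Each reported value is a median over duplicate plates. It expresses relative viability: treated-well nuclei count divided by vehicle-well nuclei count. Lung cancer cell lines in 1536-well plates were dosed by pin tool a day after seeding, alone with one drug or with a fixed anchor-drug dose plus five library-drug doses (not always all listed) in √10 steps, and nuclei were counted after 5 days.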

COR-L 105 = system: COR-L 105
How it was run: as §1

ChaGo-K-1 = system: ChaGo-K-1
How it was run: as §1

EKVX = system: EKVX
How it was run: as §1

EMC-BAC-2 = system: EMC-BAC-2
How it was run: as §1

EPLC-272H = system: EPLC-272H
How it was run: as §1

HARA = system: HARA
How it was run: as §1

HCC-44 = system: HCC-44
How it was run: as §1

LK-2 = system: LK-2
How it was run: as §1

LU99A = system: LU99A
How it was run: as §1

NCI-H1650 = system: NCI-H1650
How it was run: as §1

NCI-H1734 = system: NCI-H1734
How it was run: as §1

NCI-H1755 = system: NCI-H1755
How it was run: as §1

NCI-H1792 = system: NCI-H1792
How it was run: as §1

NCI-H1993 = system: NCI-H1993
How it was run: as §1

NCI-H2405 = system: NCI-H2405
How it was run: as §1

NCI-H358 = system: NCI-H358
How it was run: as §1

NCI-H460 = system: NCI-H460
How it was run: as §1

NCI-H522 = system: NCI-H522
How it was run: as §1

NCI-H596 = system: NCI-H596
How it was run: as §1

NCI-H647 = system: NCI-H647
How it was run: as §1

RERF-LC-KJ = system: RERF-LC-KJ
How it was run: as §1

SW 900 = system: SW 900
How it was run: as §1

Cc1csc(=NC2CCCCC2)n1/N=C/c1ccc(O)c(O)c1O [MIM1] + CC(=O)Nc1cccc(-n2c(=O)n(C3CC3)c(=O)c3c(Nc4ccc(I)cc4F)n(C)c(=O)c(C)c32)c1 [Trametinib] (partner 0.02 µM)
relative viability (A-427; first compound 0.2 µM): 0.758
relative viability (A-427; first compound 0.6325 µM): 0.737
relative viability (A-427; first compound 2 µM): 0.77
relative viability (A-427; first compound 6.325 µM): 0.672
relative viability (A-427; first compound 20 µM): 0.37
relative viability (COR-L 105; first compound 0.2 µM): 0.45
relative viability (COR-L 105; first compound 0.6325 µM): 0.548
relative viability (COR-L 105; first compound 2 µM): 0.44
relative viability (COR-L 105; first compound 6.325 µM): 0.406
relative viability (COR-L 105; first compound 20 µM): 0.439
relative viability (ChaGo-K-1; first compound 0.2 µM): 0.889
relative viability (ChaGo-K-1; first compound 0.6325 µM): 0.913
relative viability (ChaGo-K-1; first compound 2 µM): 0.876
relative viability (ChaGo-K-1; first compound 6.325 µM): 0.607
relative viability (ChaGo-K-1; first compound 20 µM): 0.193
relative viability (EKVX; first compound 0.2 µM): 0.304
relative viability (EKVX; first compound 0.6325 µM): 0.287
relative viability (EKVX; first compound 2 µM): 0.289
relative viability (EKVX; first compound 6.325 µM): 0.267
relative viability (EKVX; first compound 20 µM): 0.269
relative viability (EMC-BAC-2; first compound 0.2 µM): 0.889
relative viability (EMC-BAC-2; first compound 0.6325 µM): 0.799
relative viability (EMC-BAC-2; first compound 2 µM): 0.702
relative viability (EMC-BAC-2; first compound 6.325 µM): 0.73
relative viability (EMC-BAC-2; first compound 20 µM): 0.355
relative viability (EPLC-272H; first compound 0.2 µM): 0.322
relative viability (EPLC-272H; first compound 0.6325 µM): 0.279
relative viability (EPLC-272H; first compound 2 µM): 0.273
relative viability (EPLC-272H; first compound 6.325 µM): 0.24
relative viability (EPLC-272H; first compound 20 µM): 0.16
relative viability (HARA; first compound 0.2 µM): 0.707
relative viability (HARA; first compound 0.6325 µM): 0.608
relative viability (HARA; first compound 2 µM): 0.641
relative viability (HARA; first compound 6.325 µM): 0.216
relative viability (HARA; first compound 20 µM): 0.173
relative viability (HCC-44; first compound 0.2 µM): 1.05
relative viability (HCC-44; first compound 0.6325 µM): 1.07
relative viability (HCC-44; first compound 2 µM): 1.06
relative viability (HCC-44; first compound 6.325 µM): 1.13
relative viability (HCC-44; first compound 20 µM): 0.304
relative viability (LK-2; first compound 0.2 µM): 1.02
relative viability (LK-2; first compound 0.6325 µM): 0.693
relative viability (LK-2; first compound 2 µM): 0.625
relative viability (LK-2; first compound 6.325 µM): 1.02
relative viability (LK-2; first compound 20 µM): 0.236
relative viability (LU99A; first compound 0.2 µM): 0.571
relative viability (LU99A; first compound 0.6325 µM): 0.611
relative viability (LU99A; first compound 2 µM): 0.604
relative viability (LU99A; first compound 6.325 µM): 0.469
relative viability (LU99A; first compound 20 µM): 0.164
relative viability (NCI-H1650; first compound 0.2 µM): 0.697
relative viability (NCI-H1650; first compound 0.6325 µM): 0.619
relative viability (NCI-H1650; first compound 2 µM): 0.424
relative viability (NCI-H1650; first compound 6.325 µM): 0.182
relative viability (NCI-H1650; first compound 20 µM): 0.138
relative viability (NCI-H1734; first compound 0.2 µM): 0.786
relative viability (NCI-H1734; first compound 0.6325 µM): 0.676
relative viability (NCI-H1734; first compound 2 µM): 0.607
relative viability (NCI-H1734; first compound 6.325 µM): 0.583
relative viability (NCI-H1734; first compound 20 µM): 0.183
relative viability (NCI-H1755; first compound 0.2 µM): 0.719
relative viability (NCI-H1755; first compound 0.6325 µM): 0.778
relative viability (NCI-H1755; first compound 2 µM): 0.808
relative viability (NCI-H1755; first compound 6.325 µM): 0.7
relative viability (NCI-H1755; first compound 20 µM): 0.382
relative viability (NCI-H1792; first compound 0.2 µM): 0.4
relative viability (NCI-H1792; first compound 0.6325 µM): 0.376
relative viability (NCI-H1792; first compound 2 µM): 0.456
relative viability (NCI-H1792; first compound 6.325 µM): 0.384
relative viability (NCI-H1792; first compound 20 µM): 0.325
relative viability (NCI-H1993; first compound 0.2 µM): 0.433
relative viability (NCI-H1993; first compound 0.6325 µM): 0.43
relative viability (NCI-H1993; first compound 2 µM): 0.511
relative viability (NCI-H1993; first compound 6.325 µM): 0.448
relative viability (NCI-H1993; first compound 20 µM): 0.351
relative viability (NCI-H2405; first compound 0.2 µM): 0.586
relative viability (NCI-H2405; first compound 0.6325 µM): 0.75
relative viability (NCI-H2405; first compound 2 µM): 0.656
relative viability (NCI-H2405; first compound 6.325 µM): 0.603
relative viability (NCI-H2405; first compound 20 µM): 0.685
relative viability (NCI-H358; first compound 0.2 µM): 0.149
relative viability (NCI-H358; first compound 0.6325 µM): 0.15
relative viability (NCI-H358; first compound 2 µM): 0.119
relative viability (NCI-H358; first compound 6.325 µM): 0.116
relative viability (NCI-H358; first compound 20 µM): 0.133
relative viability (NCI-H460; first compound 0.2 µM): 0.103
relative viability (NCI-H460; first compound 0.6325 µM): 0.136
relative viability (NCI-H460; first compound 2 µM): 0.118
relative viability (NCI-H460; first compound 6.325 µM): 0.0462
relative viability (NCI-H460; first compound 20 µM): 0.0293
relative viability (NCI-H522; first compound 0.2 µM): 0.727
relative viability (NCI-H522; first compound 0.6325 µM): 0.654
relative viability (NCI-H522; first compound 2 µM): 0.834
relative viability (NCI-H522; first compound 6.325 µM): 0.897
relative viability (NCI-H522; first compound 20 µM): 0.675
relative viability (NCI-H596; first compound 0.2 µM): 0.702
relative viability (NCI-H596; first compound 0.6325 µM): 0.95
relative viability (NCI-H596; first compound 2 µM): 0.745
relative viability (NCI-H596; first compound 6.325 µM): 0.667
relative viability (NCI-H596; first compound 20 µM): 0.56
relative viability (NCI-H647; first compound 0.2 µM): 0.435
relative viability (NCI-H647; first compound 0.6325 µM): 0.567
relative viability (NCI-H647; first compound 2 µM): 0.415
relative viability (NCI-H647; first compound 6.325 µM): 0.413
relative viability (NCI-H647; first compound 20 µM): 0.18
relative viability (RERF-LC-KJ; first compound 0.2 µM): 0.832
relative viability (RERF-LC-KJ; first compound 0.6325 µM): 0.801
relative viability (RERF-LC-KJ; first compound 2 µM): 0.666
relative viability (RERF-LC-KJ; first compound 6.325 µM): 0.56
relative viability (RERF-LC-KJ; first compound 20 µM): 0.3
relative viability (SW 900; first compound 0.2 µM): 0.831
relative viability (SW 900; first compound 0.6325 µM): 0.886
relative viability (SW 900; first compound 2 µM): 0.718
relative viability (SW 900; first compound 6.325 µM): 0.196
relative viability (SW 900; first compound 20 µM): 0.21
